System: Pyrenophora teres
Assay: Activity against net blotch of barley caused by Pyrenophora teres, 1 day protective application
Type: in vivo
Details: individual active compound, barley seedlings "Hanna", assessed after 6 days
Description: The active compounds, separately, were prepared as a stock solution comprising 25 mg of active compound which was made up to 10 ml using a mixture of acetone and/or DMSO and the emulsifier Uniperol® EL (wetting agent having an emulsifying and dispersing action based on ethoxylated alkylphenols) in a ratio by volume of solvent/emulsifier of 99:1. The mixture was then made up to 100 ml with water. The active compounds or mixtures were diluted or mixed with water to the stated concentration.
Activity against net blotch of barley caused by Pyrenophora teres, 1 day protective application
Leaves of potted barley seedlings of the “Hanna” cultivar were sprayed to runoff point with an aqueous suspension having the concentration of active compound stated below. 24 hours after the spray coating had dried on, the test plants were inoculated with an aqueous spore suspension of Pyrenophora [syn. Drechslera] teres, the net blotch pathogen. […] After 6 days, the extent of the development of the disease was determined visually in % infection of the total leaf area.
The visually determined percentages of infected leaf areas were converted into efficacies in % of the untreated control:
The efficacy (E) is calculated as follows using Abbot's formula: E=(1−[…] )·100 α corresponds to the fungal infection of the treated plants in % and β corresponds to the fungal infection of the untreated (control) plants in % […]

CC1CCN(c2c(-c3c(F)cc(F)cc3F)c(Cl)nc3ncnn23)CC1 [I, 5-chloro-7-(4-methylpiperidin-1-yl)-6-(2,4,6-trifluorophenyl)[1,2,4]triazolo[1,5-a]pyrimidine]
Efficacy in % of the untreated control (1.25 ppm in the spray liquor): 55 % of the untreated control | Efficacy in % of the untreated control (5 ppm in the spray liquor): 78 % of the untreated control

— US20070191396A1, “Fungicidal mixtures” (BASF Aktiengesellschaft, priority 2004, published 2007)
